Measurements: patent US7371737B2, “2-substituted-6-trifluoromethyl purine derivatives with adenosine-A3 antagonistic activity” (Solvay Pharmaceuticals, B.V., priority 2004, dated 2008)

Assays:
Type in all cases: binding
[1] = molecular target: T1, human adenosine-A2A receptors (Homo sapiens, UniProt P29274); experiment: In vitro affinity for human adenosine-A2A receptors (radioligand [3H]CGS 21680); details: human recombinant receptors expressed in HEK-293 cells, read-out: Adenosine receptor affinity (binding) A2A pKi (converted)
T1 construct: expressed in transfected cells; host or cells: HEK-293 cells
T1 sequence (P29274 whole entry): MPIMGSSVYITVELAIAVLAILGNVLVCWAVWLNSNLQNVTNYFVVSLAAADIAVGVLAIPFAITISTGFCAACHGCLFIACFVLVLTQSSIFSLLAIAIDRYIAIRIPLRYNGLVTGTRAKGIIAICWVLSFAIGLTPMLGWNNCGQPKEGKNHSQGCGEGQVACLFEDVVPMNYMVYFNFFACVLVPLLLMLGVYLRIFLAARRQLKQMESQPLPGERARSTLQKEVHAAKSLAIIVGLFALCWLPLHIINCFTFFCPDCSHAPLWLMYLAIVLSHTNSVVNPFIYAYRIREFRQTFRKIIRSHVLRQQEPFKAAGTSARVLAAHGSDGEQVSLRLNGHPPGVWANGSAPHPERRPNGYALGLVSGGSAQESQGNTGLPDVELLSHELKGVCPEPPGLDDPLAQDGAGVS
Method: Affinity of the compounds for human adenosine-A2A receptors was determined using the receptor binding assay described by D. R. Luthin et al., (Mol. Pharmacol., 47, 307, 1995), using human recombinant receptors expressed in HEK-293 cells, and [^3H]CGS 21680 as radioligand.

[2] = molecular target: T2, human adenosine-A1 receptors (Homo sapiens, UniProt P30542); experiment: In vitro affinity for human adenosine-A1 receptors (radioligand [3H]DPCPX); details: human recombinant receptors expressed in CHO cells, read-out: Adenosine receptor affinity (binding) A1 pKi (converted)
T2 construct: expressed in transfected cells; host or cells: CHO cells
T2 sequence (P30542 1-326): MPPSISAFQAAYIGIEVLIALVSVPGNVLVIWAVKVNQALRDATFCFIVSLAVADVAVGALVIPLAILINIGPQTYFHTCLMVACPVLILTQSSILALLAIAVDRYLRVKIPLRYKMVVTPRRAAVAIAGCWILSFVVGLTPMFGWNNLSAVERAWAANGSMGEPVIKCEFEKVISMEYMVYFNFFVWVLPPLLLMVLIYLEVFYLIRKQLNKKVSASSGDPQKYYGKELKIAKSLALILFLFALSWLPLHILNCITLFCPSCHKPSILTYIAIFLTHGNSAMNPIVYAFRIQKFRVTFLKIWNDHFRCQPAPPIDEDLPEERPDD
Method: Affinity of the compounds for human adenosine-A1 receptors was determined using the receptor binding assay described by A. Townsend-Nicholson and P. R. Schofield (Biol. Chem., 269, 2373, 1994), using human recombinant receptors expressed in CHO cells, and [^3H]DPCPX as radioligand.

[3] = molecular target: T3, human Adenosine A3 receptor (Homo sapiens, UniProt P0DMS8); experiment: In vitro affinity for human adenosine-A3 receptors (radioligand [125I]-AB-MECA); parameters: expressed in transfected cells; host or cells: HEK 293 cells (membrane preparations); details: membranes of HEK 293 cells stably expressing human A3, [125I]-AB-MECA, 22° C., 90 minutes; read-out: Adenosine receptor affinity (binding) A3 pKi (converted)
T3 sequence (P0DMS8 1-318): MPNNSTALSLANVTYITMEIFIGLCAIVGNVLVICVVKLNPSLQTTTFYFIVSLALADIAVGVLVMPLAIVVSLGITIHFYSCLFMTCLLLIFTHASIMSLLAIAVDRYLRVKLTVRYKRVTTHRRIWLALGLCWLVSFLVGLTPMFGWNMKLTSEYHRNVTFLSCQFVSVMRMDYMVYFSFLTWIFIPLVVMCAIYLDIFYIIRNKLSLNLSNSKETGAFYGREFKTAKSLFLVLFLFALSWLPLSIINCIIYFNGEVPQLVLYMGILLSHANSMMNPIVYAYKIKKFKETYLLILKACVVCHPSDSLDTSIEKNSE
Method: Affinity of the compounds for human adenosine-A3 receptors was determined using the receptor binding assay described by C. A. Salvatore et al.: “Molecular cloning and characterization of the human A3 adenosine receptor”, Proc. Natl. Acad. Sci. USA, 90, 10365-10369, 1993. Briefly, membrane preparations were obtained from human recombinant (HEK 293) cells in which the human adenosine-A3 receptor was stably expressed. […] Separation of bound radioactivity from free was done by filtration through Packard GF/B glass fiber filters with several washings with ice-cold buffer using a Packard cell harvester. Bound radioactivity was measured with a scintillation counter (Topcount, Packard) using a liquid scintillation cocktail (Microscint 0, Packard). […] Determination of In Vitro Functional Activity on Human Adenosine A3 Receptors Using an Aequorin-based Assay

SMILES	Ki [1] [µM]	Ki [2] [µM]	Ki [3] [µM]
OC[C@H]1O[C@@H](n2cnc3c(C(F)(F)F)nc(OCCc4ccccc4)nc32)[C@H](O)[C@@H]1O [Compound 30, 2-phenethyloxy-6-trifluoromethyl-9-β-D-ribofuranosyl purine]	3.16	1.58	0.158
Cn1c(-c2cccc(F)c2)nc2c(C(F)(F)F)nc(NCCc3ccccc3)nc21 [Compound 20, 8-(3-fluorophenyl)-6-trifluoromethyl-9-methyl-2-phenethylamino purine]	> 10	7.94	1
CC(C)(C)OC(=O)OCn1cnc2c(C(F)(F)F)nc(NCCc3ccccc3)nc21 [Compound 28, 6-trifluoromethyl-2-phenetylamino-9-BocOM-purine]	> 10	2.51	0.0251
Cn1c(/C=C/c2ccccc2)nc2c(C(F)(F)F)nc(NCCc3ccccc3)nc21 [Compound 21, 8-E-styryl-6-trifluoromethyl-9-methyl-2-phenethylamino purine]	> 10	> 10	3.98
Cn1c(/C=C\c2ccc(C(F)(F)F)cc2)nc2c(C(F)(F)F)nc(NCCc3ccccc3)nc21 [Compound 25, 8-Z-(4-trifluoromethylstyryl)-6-trifluoromethyl-9-methyl-2-phenethylamino purine]	> 10	> 10	5.01
Cn1c(N2CCCC2)nc2c(C(F)(F)F)nc(NCCc3ccccc3)nc21 [Compound 15, 8-N-pyrrolidinyl-6-trifluoromethyl-9-methyl-2-phenethylamino purine]	> 10	> 10	3.16
Cn1c(C#Cc2ccccc2)nc2c(C(F)(F)F)nc(NCCc3ccccc3)nc21 [Compound 23, 8-phenylacetylene-6-trifluoromethyl-9-methyl-2-phenethylamino purine]	> 10	> 10	0.501
Cn1c(NC2CCCC2)nc2c(C(F)(F)F)nc(NCCc3ccccc3)nc21 [Compound 18, 8-cyclopentylamino-6-trifluoromethyl-9-methyl-2-phenethylamino purine]	1.26	3.16	0.631
Cn1c(N2CCCCC2)nc2c(C(F)(F)F)nc(NCCc3ccccc3)nc21 [Compound 16, 8-N-piperidinyl-6-trifluoromethyl-9-methyl-2-phenethyl amino purine]	15.8	> 10	3.98
Cn1cnc2c(C(F)(F)F)nc([N+](=O)[O-])nc21 [Compound 1, 2-nitro-6-trifluoromethyl-9-methyl purine]	> 10	> 10	3.98
Cn1c(/C=C/c2ccc(C(F)(F)F)cc2)nc2c(C(F)(F)F)nc(NCCc3ccccc3)nc21 [Compound 24, 8-E-(4-trifluoromethylstyryl)-6-trifluoromethyl-9-methyl-2-phenethylamino purine]	> 10	> 10	3.98
Cn1c(N2CCOCC2)nc2c(C(F)(F)F)nc(NCCc3ccccc3)nc21 [Compound 17, 8-N-morpholinyl-6-trifluoromethyl-9-methyl-2-phenethylamino purine]	> 10	> 10	1.58
OC[C@H]1O[C@@H](n2cnc3c(C(F)(F)F)nc(NCCc4ccc(O)cc4)nc32)[C@H](O)[C@@H]1O [Compound 27, 2-(4-hydroxy-phenethylamino)-6-trifluoromethyl-9-β-D-ribo-furanosyl purine]	3.16	5.01	0.01
Cn1c(-c2ccccc2)nc2c(C(F)(F)F)nc(NCCc3ccccc3)nc21 [Compound 19, 8-phenyl-6-trifluoromethyl-9-methyl-2-phenethylamino purine]	7.94	> 10	2
